According to the supplement of paper PMC6045584:

How the values were obtained:
Assay in all cases: area under dose-response curve of surviving fraction (unscaled, Aref=0) (surviving fraction x log10(nM)); higher = more resistant
Conditions in all cases: exposure time: 5 days; dose range 0.5-1000 nM
[1] = compound: C#Cc1cccc(Nc2ncnc3cc(OCCOC)c(OCCOC)cc23)c1 [ERLOTINIB]
Summary of the method: (§1)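 Tumour cell lines in 384-well plates were exposed for five days to eight inhibitor concentrations from 0.5 to 1000 nM. Viability was read by CellTiter-Glo luminescence, normalised to DMSO-only wells, in three screens per line. Dose-response survival curves were fitted to surviving fractions by 3-parameter logistic regression in the drc R package. Area under the curve is the unscaled activity area (Aref = 0) over log10 dose.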

[2] = compound: CCC1=C[C@@H]2CN(C1)Cc1c([nH]c3ccccc13)[C@@](C(=O)OC)(c1cc3c(cc1OC)N(C)[C@H]1[C@@](O)(C(=O)OC)[C@H](OC(C)=O)[C@]4(CC)C=CCN5CC[C@]31[C@@H]54)C2 [VINORELBINE]
Summary of the method: as §1

[3] = compound: CCCS(=O)(=O)Nc1ccc(F)c(C(=O)c2c[nH]c3ncc(Cl)cc23)c1F [PLX-4720]
Summary of the method: as §1

[4] = compound: CCN(CC)CCNC(=O)c1c(C)[nH]c(/C=C2\C(=O)Nc3ccc(F)cc32)c1C [SUNITINIB]
Summary of the method: as §1

[5] = compound: CN(Cc1cnc2nc(N)nc(N)c2n1)c1ccc(C(=O)N[C@@H](CCC(=O)O)C(=O)O)cc1 [METHOTREXATE]
Summary of the method: as §1

[6] = compound: CO[C@H]1C[C@@H]2CC[C@@H](C)[C@@](O)(O2)C(=O)C(=O)N2CCCC[C@H]2C(=O)O[C@H]([C@H](C)C[C@@H]2CC[C@@H](OCCO)[C@H](OC)C2)CC(=O)[C@H](C)/C=C(\C)[C@@H](O)[C@@H](OC)C(=O)[C@H](C)C[C@H](C)/C=C/C=C/C=C/1C [EVEROLIMUS]
Summary of the method: as §1

[7] = compound: COc1cc(CCc2cc(NC(=O)c3ccc(N4CC(C)NC(C)C4)cc3)n[nH]2)cc(OC)c1 [AZD4547]
Summary of the method: as §1

[8] = compound: COc1cc([C@@H]2c3cc4c(cc3[C@@H](O[C@@H]3O[C@@H]5CO[C@@H](C)O[C@H]5[C@H](O)[C@H]3O)[C@H]3COC(=O)[C@H]23)OCO4)cc(OC)c1O [ETOPOSIDE]
Summary of the method: as §1

[9] = compound: Cc1nc(Nc2n[nH]c3c2CN(C(=O)N[C@H](CN(C)C)c2ccccc2)C3(C)C)c2sccc2n1
Summary of the method: as §1

[10] = compound: NC1(c2ccc(-c3nc4ccn5c(=O)[nH]nc5c4cc3-c3ccccc3)cc2)CCC1 [MK2206]
Summary of the method: as §1

[11] = compound: Nc1ccn([C@@H]2O[C@H](CO)[C@@H](O)C2(F)F)c(=O)n1 [GEMCITABINE]
Summary of the method: as §1

[12] = compound: O=C(NOCC1CC1)c1ccc(F)c(F)c1Nc1ccc(I)cc1Cl
Summary of the method: as §1

[13] = compound: O=C(O)CC[C@H]1CC[C@@](c2cc(F)ccc2F)(S(=O)(=O)c2ccc(Cl)cc2)CC1 [MK0752]
Summary of the method: as §1

Row | Test System | area under dose-response curve [1] | area under dose-response curve [2] | area under dose-response curve [3] | area under dose-response curve [4] | area under dose-response curve [5] | area under dose-response curve [6] | area under dose-response curve [7] | area under dose-response curve [8] | area under dose-response curve [9] | area under dose-response curve [10] | area under dose-response curve [11] | area under dose-response curve [12] | area under dose-response curve [13]
1 | MCF7 BREAST | 3.32 | 2.07 | 2.81 | 2.56 | 2.23 | 1.74 | 3.09 | 2.83 | 2.09 | 2.79 | 1.94 | 2.83 | 3.07
2 | MDAMB231 BREAST | 3.4 | 1.77 | 3.25 | 3.4 | 3.12 | 2.01 | 3.37 | 3.08 | 1.79 | 3.09 | 2.29 | 3.01 | 3.28
3 | MDAMB361 BREAST | 2.9 | 2.09 | 2.92 | 2.37 | 2.76 | 2.12 | 3.18 | 3.08 | 2.83 | 2.39 | 2.69 | 3.27 | 2.88
4 | MDAMB436 BREAST | 3.36 | 1.99 | 2.86 | 2.56 | 2.65 | 2 | 3.36 | 2.79 | 2.55 | 3.01 | 1.85 | 2.96 | 3.02
5 | MDAMB468 BREAST | 3.23 | 1.33 | 3.1 | 3.17 | 2 | 1.93 | 3.6 | 3.72 | 0.925 | 3.04 | 1.09 | 3.21 | 3.61
6 | MFM223 BREAST | 4.35 | 1.45 | 2.87 | 2.38 | 4 | 2.56 | 1.63 | 3.2 | 1.83 | 2.57 | 1.99 | 3.55 | 3.93
7 | MHM BONE | 3.44 | 2.21 | 3.27 | 3.15 | 2.88 | 2.37 | 2.76 | 3.23 | 2.58 | 3.2 | 1.46 | 3.16 | 3.45
8 | NY BONE | 3.37 | 1.35 | 3.09 | 2.99 | 2.49 | 2.33 | 2.25 | 3.17 | 1.56 | 3.18 | 1.11 | 3.13 | 3.54
9 | OS25HAL BONE | 3.48 | 1.8 | 3.14 | 3.07 | 1.93 | 2.13 | 3.36 | 3.02 | 1.54 | 2.56 | 0.944 | 3.16 | 3.42
10 | PCI30 HEADNECK | 2.96 | 1.21 | 3.34 | 3.77 |  | 1.71 | 3.56 | 3.08 | 1.83 | 2.94 | 1.8 | 2.75 | 3.5
11 | SG43 HEADNECK | 2.23 | 1.93 | 3.93 | 3.53 | 2.93 | 3.01 | 2.62 | 2.8 |  | 2.3 | 2.1 | 2.18 | 3.25
12 | SNU475 LIVER | 3.21 | 2.17 | 2.43 | 2.27 | 3 | 1.26 | 3.14 | 3.16 | 1.98 | 3.02 | 1.81 | 2.41 | 3.31
13 | SYO1 SYNOVIAL | 3.34 | 1.3 | 2.17 | 1.69 | 1.91 | 1.81 | 2.4 | 2.14 | 0.731 | 2.79 | 0.79 | 2.4 | 3.26
14 | T47D BREAST | 3.73 | 1.99 | 3.2 | 3.18 | 2.28 | 2.24 | 3.76 | 2.95 | 2.87 | 2.61 | 2.72 | 3.24 | 3.56
15 | U2OS BONE | 3.46 | 2.14 | 3.23 | 2.94 | 2.4 | 2.39 | 2.79 | 2.88 | 1.35 | 3.14 | 1.49 | 3.26 | 3.56
